Data on 44 compounds can be found in PubChem BioAssay AID1996.

Values after ≈ are worked out from the molar mass of the structure shown.

For the series the following is noted: buffer; pH 7.4; 200.0 µM.
In the case of `O=C1/C(=C/c2cccs2)SC(=S)N1C1CCS(=O)(=O)C1` (centres undefined), the kinetic solubility was < 0.7 µg/mL. The result for `CCN1CCN(c2ccc(NC(=O)c3ccco3)cc2Cl)CC1` reads 45.2 µg/mL (≈ 135 µM); that for `CCOc1ccc(CNc2ccc(N3CCN(Cc4ccccc4)CC3)cc2)cc1`, 0.9 µg/mL (≈ 2.24 µM); that for `COC(=O)c1ccc(CN=C(NS(=O)(=O)c2ccccc2)c2ccccc2)cc1`, > 61.3 µg/mL. The result for `O=C(c1ccc2c(c1)OCO2)C1CCCN(Cc2ccccn2)C1` (centres undefined) reads 32.8 µg/mL (≈ 101 µM); that for `CCOC(=O)/C(=C/Nc1ccc(F)c(F)c1)[N+](=O)[O-]`, > 40.8 µg/mL.

In the case of `CCCCNC(=O)NC(C(N)=O)P(=O)(OCC)OCC` (centres undefined), the solubility (kinetic) is > 46.4 µg/mL. The result for `CCc1sc(C(=O)Nc2ccc3c(c2)OCO3)cc1C` reads 4.9 µg/mL (≈ 16.9 µM); that for `c1ccc(CNc2cncnc2)cc1`, 26.4 µg/mL (≈ 143 µM). In the case of `O=C(Cn1cc(C(=O)C2CC2)c2ccccc21)Nc1ccccc1Cl` it was < 0.4 µg/mL; in that of `CCN1C(=O)C(C(=O)c2ccccc2)SC1=S` (centres undefined), 38.4 µg/mL (≈ 145 µM); in that of `Cc1cc(NC(=O)c2sc3ccccc3c2O)no1`, > 41.1 µg/mL. In the case of `COc1ccccc1NCC(=O)c1ccc(C)c(C)c1` it was 2.6 µg/mL (≈ 9.65 µM). In the case of `Cc1cccn2cc(-c3cc4ccccc4oc3=O)nc12`, the kinetic solubility was found to be 0.6 µg/mL (≈ 2.17 µM). In the case of `Cc1cc(C)cc(NC(=O)NCC(O)COc2ccc([N+](=O)[O-])cc2)c1` (centres undefined) it was 6.1 µg/mL (≈ 17 µM); in that of `O=C(NCc1ccccn1)Nc1ccc(Cl)cc1Cl`, 9.2 µg/mL (≈ 31.1 µM); in that of `COc1c(C=O)cc2c3c1CCCN3CCC2`, 29.7 µg/mL (≈ 128 µM). The result for `CCOc1ccc(NC(=O)C(CC(=O)O)Cc2ccc(Br)cc2)cc1` (centres undefined) reads 50 µg/mL (≈ 123 µM).

On to `O=C(Cc1ccccc1)Nc1ccc(Cl)cn1`, for which the kinetic solubility turned out to be 21.5 µg/mL (≈ 87.2 µM). The result for `COc1ccc(CCNC(=O)c2ccc(Br)cc2)cc1` reads 1.3 µg/mL (≈ 3.89 µM).

For `CC(C)CCNS(=O)(=O)c1cc2c3c(c1)CCN3C(=O)CC2`, the kinetic solubility was found to be 46 µg/mL (≈ 143 µM). In the case of `CC(C)CC(Nc1ncnc2scc(-c3ccccc3)c12)C(=O)O` (centres undefined) it was > 51.2 µg/mL; in that of `COc1ccc2nc(Nc3ccccc3OC)sc2c1`, 3.8 µg/mL (≈ 13.3 µM). The result for `O=C(Nc1nccs1)c1ccc(Br)s1` reads 5.6 µg/mL (≈ 19.4 µM); that for `Cl.NCCCCNCCCN`, 16.4 µg/mL; that for `Cc1ccc(C(=O)N=c2sccn2C)cc1C`, 10 µg/mL (≈ 40.6 µM). The result for `Cc1cc2c(cc1C)CN(c1ccccc1)C2` reads 7.1 µg/mL (≈ 31.8 µM).

The compound `Nc1nc(NCC2CCCO2)nc(Nc2ccccc2F)c1[N+](=O)[O-]` (centres undefined) came in with a solubility (kinetic) of 0.6 µg/mL (≈ 1.72 µM). Regarding `COC(=O)c1ccc(NC(=S)N2CCCC2)cc1`, the kinetic solubility is > 39.7 µg/mL.

The compound `COCCCNC(=S)N(Cc1ccccc1)Cc1ccc(F)cc1` registered a solubility (kinetic) of 22.1 µg/mL (≈ 63.8 µM).

With `O=C(c1ccc([N+](=O)[O-])cc1)N1CCCC1`, the kinetic solubility was > 33 µg/mL. In the case of `Cc1cccc(NC(=O)NCC2CC2)c1` it was > 30.6 µg/mL; in that of `CCN(CC)CCOC(=O)C(O)(c1ccccc1)c1ccccc1.Cl`, > 54.6 µg/mL; in that of `O=C(CN1CCCCC1)n1c2ccccc2c2ccccc21`, 24.3 µg/mL (≈ 83.1 µM). In the case of `CC(C)OC(=O)c1ccc(COC(=O)CNC(=O)c2ccco2)cc1` it was 34.8 µg/mL (≈ 101 µM); in that of `CCN(CC(=O)NCc1ccc(Cl)cc1)C(=O)c1sccc1C`, > 52.6 µg/mL; in that of `CCCNC(=O)c1ccc2c(c1)ncn2-c1cc(C)cc(C)c1`, 38.4 µg/mL (≈ 125 µM). The result for `CCCNc1nc2ccccc2c(=O)[nH]1` reads > 30.5 µg/mL. Take `COc1cccc(NC(=S)Nc2ccc(F)cc2)c1`: the solubility (kinetic) came out at 28.7 µg/mL (≈ 104 µM). As to `COC(=O)c1sc(NC(=O)COc2ccccc2C)nc1C`, the kinetic solubility amounted to 0.6 µg/mL (≈ 1.87 µM). With `CN(C(=O)c1cc2ccccc2cc1O)C1CCCCC1`, the kinetic solubility came to 40.6 µg/mL (≈ 143 µM). In the case of `COC(=O)C1=C(C)N(C)C(=S)NC1c1cc(OC)ccc1OC` (centres undefined) it was 36.5 µg/mL (≈ 108 µM). In the case of `COc1ccc(NC(=S)NCc2ccccc2)c(OC)c1` it was 38.8 µg/mL (≈ 128 µM); in that of `COc1ccc(NC(=O)CSc2nnc(N)s2)cc1S(=O)(=O)N1CCCCC1`, > 66.5 µg/mL.
